From patent US9826766B2 (priority 2012, dated 2017) come the findings set out here.

Holding throughout (conditions): mouse, in vivo
Series [1] concerns enterotoxinogenic strain of Clostridium perfringens. Details: species or system axenic C3H/He mice.
For series [2] the test system is unchanged.
For series [3] the test system is unchanged. Details: species or system axenic C3H/He mice. This is another data set of the same source.

`OC[C@H]1O[C@@H](O[C@H]2[C@H](O)[C@@H](O)C(O)O[C@@H]2CO)[C@H](O)[C@@H](O)[C@H]1O` (some centres unmarked) [Lactose]: in series [1], the “Count (log CFU/g of feces) of Clostridium perfringens” value is recorded as “Mice dead or dying”. Besides, the mice died in series [2] turned out to be 100%. In series [3], the “Clostridium perfringens count, Blood” value was determined as 2.3 log CFU/g; the “Clostridium perfringens count, Cecum” value turned out to be 5.5 ± 0.8 log CFU/g; the “Clostridium perfringens count, Colon” value amounted to 6.6 ± 0.1 log CFU/g; the “Clostridium perfringens count, Ileum” value was found to be 3.4 ± 0.8 log CFU/g. Moreover, in series [3], the “Clostridium perfringens count, Kidney” value came out at 3.0 log CFU/g; the “Clostridium perfringens count, Liver” value is recorded as 4.4 log CFU/g; the “Clostridium perfringens count, Spleen” value came to 4.2 log CFU/g; the “bacterial translocation, in words” value was “promotes bacterial translocation”. In series [3], the “colonization of the intestine vs control mice, in words” value is given as “weak colonization of the intestine”.
